Measured values published in ChEMBL document CHEMBL6127009, “Discovery of L15 as a novel Vif PROTAC degrader with antiviral activity against HIV-1” (Bioorg Med Chem Lett, 2024).
pEC50: −log10 of the molar value. Active and inactive are the calls of the source. The calls are words filed in the database; no cut-off is given here.

Tests used:
[1] = system: Human immunodeficiency virus 1; assay: Antiviral activity against HIV-1 IIIB infected in TZM-bl cells; format: functional, organism-based; conditions: Human immunodeficiency virus 1, IIIB
[2] = Cytotoxicity against human TZM-bl cells; format: toxicity, cell-based
[3] = Therapeutic index, ratio of CC50 for human TZM-bl cells to EC50 for HIV IIIB infected in TZM-bl cells; format: toxicity, cell-based; conditions: read-out: Ratio CC50/EC50
[4] = molecular target: T1, Protein cereblon/Virion infectivity factor (Human immunodeficiency virus type 1 group M subtype B (isolate NY5)(HIV-1)) (UniProt Q96SW2+P12504); assay: PROTAC activity at CRBN (unknown origin)/Vif in HIV-1 TREX-hvif-15 cells assessed as reduction in Vif protein level at 50 uM by Western blotting analysis; format: cell-based; conditions: TREX-hvif-15 cell
[5] = molecular target: T1, Protein cereblon/Virion infectivity factor (Human immunodeficiency virus type 1 group M subtype B (isolate NY5)(HIV-1)); assay: PROTAC activity at CRBN (unknown origin)/Vif in HIV-1 TREX-hvif-15 cells assessed as reduction in Vif protein level incubated for 24 hrs by Western blotting analysis; format: cell-based; conditions: TREX-hvif-15 cell, dose 3.125-50 µM
[6] = molecular target: T1, Protein cereblon/Virion infectivity factor (Human immunodeficiency virus type 1 group M subtype B (isolate NY5)(HIV-1)); assay: PROTAC activity at CRBN (unknown origin)/Vif in HIV-1 TREX-hvif-15 cells assessed as reduction in Vif protein level at 100 uM incubated for 24 hrs by Western blotting analysis; format: cell-based; set-up: scale not given: the % may be the effect or the level left; conditions: TREX-hvif-15 cell
[7] = molecular target: T1, Protein cereblon/Virion infectivity factor (Human immunodeficiency virus type 1 group M subtype B (isolate NY5)(HIV-1)); assay: PROTAC activity at CRBN (unknown origin)/Vif in HIV-1 TREX-hvif-15 cells assessed as reduction in Vif protein level at 50 uM pretreated with MG132 followed by compound addition and measured after 24 hrs by Western blotting analysis; format: cell-based; conditions: TREX-hvif-15 cell
[8] = Cytotoxicity against human PBMCs; format: toxicity, cell-based, PBMC
[9] = system: Human immunodeficiency virus 1; assay: Antiviral activity against HIV-1 KIZ002 infected in PHA-P stimulated PBMCs; format: functional, organism-based; conditions: Human immunodeficiency virus 1, KIZ002, PBMC
[10] = system: Human immunodeficiency virus 1; assay: Antiviral activity against HIV-1 WAN infected in PHA-P stimulated PBMCs; format: functional, organism-based; conditions: Human immunodeficiency virus 1, WAN, PBMC
[11] = system: Human immunodeficiency virus 1; assay: Antiviral activity against HIV1 at 50 uM measured after 8 hrs; format: functional, organism-based
[12] = system: Human immunodeficiency virus 1; assay: Antiviral activity against HIV-1 IIIB infected in C8166 cells; format: functional, organism-based; conditions: Human immunodeficiency virus 1, IIIB
[13] = system: Human immunodeficiency virus 1; assay: Antiviral activity against HIV-1 G140S/Q148H infected in C8166 cells; format: functional, organism-based; conditions: Human immunodeficiency virus 1, G140S/Q148H
[14] = system: Human immunodeficiency virus 1; assay: Antiviral activity against HIV-1 2802 infected in C8166 cells; format: functional, organism-based; conditions: Human immunodeficiency virus 1, 2802, C8166
[15] = system: Human immunodeficiency virus 1; assay: Antiviral activity against HIV-1 9498 infected in C8166 cells; format: functional, organism-based; conditions: Human immunodeficiency virus 1, 9498, C8166
[16] = system: Human immunodeficiency virus 1; assay: Antiviral activity against HIV-1 4755-5 infected in C8166 cells; format: functional, organism-based; conditions: Human immunodeficiency virus 1, 4755-5, C8166
[17] = system: Human immunodeficiency virus 1; assay: Antiviral activity against HIV-1 A17 infected in C8166 cells; format: functional, organism-based; conditions: Human immunodeficiency virus 1, A17, C8166

T1 sequence (P12504 whole entry, looked up): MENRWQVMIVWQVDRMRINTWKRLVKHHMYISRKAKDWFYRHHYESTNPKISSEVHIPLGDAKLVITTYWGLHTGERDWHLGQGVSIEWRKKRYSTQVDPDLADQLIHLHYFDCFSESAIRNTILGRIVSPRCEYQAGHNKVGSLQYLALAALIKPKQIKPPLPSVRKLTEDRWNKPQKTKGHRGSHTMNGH
T1 sequence (Q96SW2 whole entry, looked up): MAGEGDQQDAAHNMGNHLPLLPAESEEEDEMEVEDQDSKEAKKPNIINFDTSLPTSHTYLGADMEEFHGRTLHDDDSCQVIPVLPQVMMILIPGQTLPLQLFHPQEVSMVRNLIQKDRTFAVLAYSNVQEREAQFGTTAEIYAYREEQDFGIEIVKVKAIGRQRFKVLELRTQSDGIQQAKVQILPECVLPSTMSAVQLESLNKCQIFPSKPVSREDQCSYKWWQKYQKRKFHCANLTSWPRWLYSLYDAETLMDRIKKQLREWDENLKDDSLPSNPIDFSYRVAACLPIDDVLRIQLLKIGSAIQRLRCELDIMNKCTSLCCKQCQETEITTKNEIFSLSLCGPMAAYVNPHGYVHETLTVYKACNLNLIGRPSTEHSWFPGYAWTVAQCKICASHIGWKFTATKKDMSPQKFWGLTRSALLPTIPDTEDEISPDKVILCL

`COc1ccc(OCC(=O)NCCOCCOCCNc2cccc3c2C(=O)N(C2CCC(=O)NC2=O)C3=O)cc1NC(=O)c1c(N)cccc1Sc1ccc([N+](=O)[O-])cc1` (configuration not stated) gave a pEC50 [1] of 4.48, a CC50 [2] of over 200 µM and a selectivity ratio [3] of over 6. The Activity [4] was “Active”, the Activity [5] was “Dose-Dependent Effect” and the Activity [6] was 100%. For the same compound, the Activity [7] was “inactive”, the CC50 [8] was over 200 µM and the pEC50 [9] was 4.98. The pEC50 [10] was 5.06, the Activity [11] was “Active” and the pEC50 [12] was 4.98. It also gave a pEC50 [13] of 5.07, a pEC50 [14] of 5.14 and a pEC50 [15] of 5.02. The pEC50 [16] was 4.87 and the pEC50 [17] was under 4.00.
